Columns and labels:
[1] = tested on: Gram-negative and Gram-positive bacteria; experiment: Antibacterial activity, overall statement; type: cell-based
Experimental: The antibacterial spectra of 3-O-demethylistamycin B.sesquicarbonate and 3-O-demethyl-2"-N-formimidoylistamycin B.disulphate.trihydrate are shown in Table 2, along with that of istamycin B for comparison purposes.
*^1 Determined according to a standard serial dilution method on
nutrient agar plates which were incubated at 37° C. for 17 hours.

in vivo = conditions: mouse, iv
mice = experiment: Acute toxicity by intravenous injection in mice
Pseudomonas aeruginosa = conditions: relative to istamycin A; earlier filings; cited from earlier work

Compound | antibacterial activity (in words) [1] | MTD (in vivo) [mg/kg] | toxicity (in words) (mice) | antibacterial activity against Pseudomonas aeruginosa compared with istamycin A (Pseudomonas aeruginosa)
CNCC1CCC(N)C(OC2C(N)CC(O)C(NC)C2O)O1 (stereo not shown) [3-O-Demethylistamycin BO] | poor antibacterial activity | 160 | low toxicity | 
di-N^6',O^3 -demethylistamycin A |  |  |  | significantly higher than that of istamycin A

Reference: patent publication US4499083A, “3-O-Demethyl derivatives of the istamycin B series of compounds” (Zaidan Hojin Biseibutsu Kagaku Kenkyu Kai, priority 1980, dated 1985)
